Test results taken from patent US20020010341A1, “Use of thioamide oxazolidinones for the treatment of bone resorption and osteoporosis” (priority 2000, published 2002).

Tests used:
Format in all cases: in vivo
rats [1] = assay: 4-week oral toxicity study in rats with 4 and 8 week recovery
Protocol: (§1) The toxicity of the compound of Example 2 was evaluated in rats treated orally with 30, 60, 120, or 200 mg/kg/day of the compound of Example 2, water, or vehicle (containing 80% propylene glycol, 5% cremophor, and 30-mg/ml povidone) for 4 weeks given in 2 divided doses at 8 hours apart. Reversibility of drug-induced changes was determined 4 and 8 weeks following drug withdrawal. The pathogenesis of the bone changes was evaluated in a study in rats treated with 200 mg/kg/day for 3 or 7 days. TGF-betal protein levels in bone marrow supernatants and serum were determined using ELISA at the end of each of the dosing period. Toxicity was evaluated using clinical, hematological, biochemical, and pathologic end points.

rats [2] = assay: Pathogenesis of the bone changes, rats treated for 3 or 7 days; conditions: oral
Protocol: as §1

TGF-betal protein = TGF-betal protein levels in bone marrow supernatants and serum by ELISA; conditions: rats
Protocol: as §1

For `CC(=S)NC[C@H]1CN(c2ccc(N3CC[S+]([O-])CC3)c(F)c2)C(=O)O1` [Example 2, (S)-N-[[3-[3-Fluoro-4-(4-thiomorpholinyl)phenyl] -2-oxo-5-oxazolidinyl]methyl]thio-acetamide, thiomorpholine S-oxide], the “persistence of newly formed bone spicules after drug withdrawal” value (rats [1]; 4 and 8 weeks after drug withdrawal) was “still present after 4 and 8 weeks of drug withdrawal”, the bone marrow changes (rats [1]; oral) was “did not show changes other than hypocellularity related to hematopoietic suppression” and the “bone mass and density of trabecular (spongy) bone of sternum, femur/tibia, vertebrae, basal cranium” value (rats [1]; oral, 120 and 200 mg/kg/day) was “caused an increase in bone mass and density (hyperostosis)”. For the same compound, the “endosteal cortical bone formation” value (rats [1]; oral, 120 and 200 mg/kg/day) was “occurred rarely”, the toxic effects (rats [1]; oral, 120 and 200 mg/kg/day) was “anorexia, weight loss, GI effects, hematopoietic suppression and lymphoid depletion” and the “marrow cavity histology at Day 28” value (rats [1]; oral, Day 28) was “marrow cavities were traversed by abundant normal looking trabecular bone”. The clinical tolerability (rats [1]; oral, all doses but 200 mg/kg/day (30, 60, 120 mg/kg/day), 4 weeks, 2 divided doses) was “well tolerated clinically”, the “onset of hyperostosis (osteoblast proliferation, osteoid deposition)” value (rats [2]; 200 mg/kg/day for 3 or 7 days) was “became evident by Day 7” and the “osseous changes on Day 3” value (rats [2]; 200 mg/kg/day, Day 3) was “no significant osseous changes”. The “Serum TGF-beta I” value (TGF-betal protein; Day 3, ELISA) was “slightly but significantly decreased”, the “TGF-betal in marrow supernatants” value (TGF-betal protein; Day 3, ELISA) was “modestly but significantly increased” and the “TGF-betal in marrow supernatants” value (TGF-betal protein; Day 7 or 28, ELISA) was “not on Day 7 or 28”.
